# Measured values as given in PubChem BioAssay (NCI).
#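 Values below derive from 48-hour exposures of cells grown in 96-well plates, with endpoints linearly interpolated between the two concentrations bracketing the appropriate inhibition level. TGI denotes the concentration required for complete inhibition of growth.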
# How the values were obtained:
# Assay in all cases: DTP human tumour cell line panel, 48 h
# [1] = tested on: 786-0 renal
# [2] = tested on: A498 renal
# [3] = tested on: A549 NSCLC
# [4] = tested on: ACHN renal
# [5] = tested on: CAKI-1 renal
# [6] = tested on: CCRF-CEM leukemia
# [7] = tested on: COLO 205 colon
# [8] = tested on: DLD-1 colon
# [9] = tested on: DMS 114 small cell lung
# [10] = tested on: DMS 273 small cell lung
# [11] = tested on: EKVX NSCLC
# [12] = tested on: HCC-2998 colon
# [13] = tested on: HCT-116 colon
# [14] = tested on: HCT-15 colon
# [15] = tested on: HL-60(TB) leukemia
# [16] = tested on: HOP-18 NSCLC
# [17] = tested on: HOP-62 NSCLC
# [18] = tested on: HOP-92 NSCLC
# [19] = tested on: IGROV1 ovarian
# [20] = tested on: K-562 leukemia
# [21] = tested on: KM20L2 colon
# [22] = tested on: LOX IMVI melanoma
# [23] = tested on: LXFL 529 NSCLC
# [24] = tested on: M14 melanoma
# [25] = tested on: M19-MEL melanoma
# [26] = tested on: MALME-3M melanoma
# [27] = tested on: MOLT-4 leukemia
# [28] = tested on: NCI-H23 lung
# [29] = tested on: NCI-H460 lung
# [30] = tested on: NCI-H522 lung
# [31] = tested on: OVCAR-3 ovarian
# [32] = tested on: OVCAR-4 ovarian
# [33] = tested on: OVCAR-5 ovarian
# [34] = tested on: OVCAR-8 ovarian
# [35] = tested on: RPMI-8226 leukemia
# [36] = tested on: RXF 393 renal
# [37] = tested on: SF-268 CNS
# [38] = tested on: SF-295 CNS
# [39] = tested on: SK-MEL-2 melanoma
# [40] = tested on: SK-MEL-28 melanoma
# [41] = tested on: SK-MEL-5 melanoma
# [42] = tested on: SK-OV-3 ovarian
# [43] = tested on: SN12C renal
# [44] = tested on: SNB-19 CNS
# [45] = tested on: SNB-75 CNS
# [46] = tested on: SR leukemia
# [47] = tested on: SW-620 colon
# [48] = tested on: TK-10 renal
# [49] = tested on: U251 CNS
# [50] = tested on: UACC-62 melanoma
# [51] = tested on: UO-31 renal
# [52] = tested on: XF 498 CNS
# [53] = tested on: HT29 colon
# [54] = tested on: KM12 colon
# [55] = tested on: SF-539 CNS
# [56] = tested on: SNB-78 CNS
# [57] = tested on: UACC-257 melanoma
structure (smiles),measurement,setting,value
CCOC(=O)c1cc2c(OCc3ccccc3)c(OC)cc3c2c(n1)N(c1ccc(OC)cc1)C(C)C3 (stereo not given),TGI,[1],> 50 µM
same,TGI,[2],> 50 µM
same,TGI,[3],> 50 µM
same,TGI,[4],> 50 µM
same,TGI,[5],> 50 µM
same,TGI,[6],> 50 µM
same,TGI,[7],> 50 µM
same,TGI,[8],> 50 µM
same,TGI,[9],> 50 µM
same,TGI,[10],> 50 µM
same,TGI,[11],> 50 µM
same,TGI,[12],> 50 µM
same,TGI,[13],> 50 µM
same,TGI,[14],> 50 µM
same,TGI,[15],> 50 µM
same,TGI,[16],> 50 µM
same,TGI,[17],> 50 µM
same,TGI,[18],42.9 µM
same,TGI,[19],> 50 µM
same,TGI,[20],> 50 µM
same,TGI,[21],> 50 µM
same,TGI,[22],> 50 µM
same,TGI,[23],> 50 µM
same,TGI,[24],> 50 µM
same,TGI,[25],> 50 µM
same,TGI,[26],> 50 µM
same,TGI,[27],> 50 µM
same,TGI,[28],> 50 µM
same,TGI,[29],> 50 µM
same,TGI,[30],> 50 µM
same,TGI,[31],> 50 µM
same,TGI,[32],> 50 µM
same,TGI,[33],> 50 µM
same,TGI,[34],> 50 µM
same,TGI,[35],> 50 µM
same,TGI,[36],> 50 µM
same,TGI,[37],> 50 µM
same,TGI,[38],> 50 µM
same,TGI,[39],> 50 µM
same,TGI,[40],> 50 µM
same,TGI,[41],> 50 µM
same,TGI,[42],> 50 µM
same,TGI,[43],> 50 µM
same,TGI,[44],> 50 µM
same,TGI,[45],> 50 µM
same,TGI,[46],> 50 µM
same,TGI,[47],> 50 µM
same,TGI,[48],> 50 µM
same,TGI,[49],> 50 µM
same,TGI,[50],> 50 µM
same,TGI,[51],> 50 µM
same,TGI,[52],> 50 µM
CC(C)(C)C(=O)OCC1OC(N=[N+]=[N-])C(OC(=O)C(C)(C)C)C(OC(=O)C(C)(C)C)C1OC(=O)C(C)(C)C (stereo not given),TGI,[2],> 100 µM
same,TGI,[3],> 100 µM
same,TGI,[4],> 100 µM
same,TGI,[5],> 100 µM
same,TGI,[6],> 100 µM
same,TGI,[7],> 100 µM
same,TGI,[8],> 100 µM
same,TGI,[9],> 100 µM
same,TGI,[10],> 100 µM
same,TGI,[11],> 100 µM
same,TGI,[12],> 100 µM
same,TGI,[13],> 100 µM
same,TGI,[14],> 100 µM
same,TGI,[15],> 100 µM
same,TGI,[17],> 100 µM
same,TGI,[18],> 100 µM
same,TGI,[53],> 100 µM
same,TGI,[19],> 100 µM
same,TGI,[20],> 100 µM
same,TGI,[54],> 100 µM
same,TGI,[21],> 100 µM
same,TGI,[23],> 100 µM
same,TGI,[24],> 100 µM
same,TGI,[26],> 100 µM
same,TGI,[27],> 100 µM
same,TGI,[28],> 100 µM
same,TGI,[29],> 100 µM
same,TGI,[30],> 100 µM
same,TGI,[31],> 100 µM
same,TGI,[32],> 100 µM
same,TGI,[33],> 100 µM
same,TGI,[34],> 100 µM
same,TGI,[35],> 100 µM
same,TGI,[36],> 100 µM
same,TGI,[37],> 100 µM
same,TGI,[38],> 100 µM
same,TGI,[55],> 100 µM
same,TGI,[39],> 100 µM
same,TGI,[40],> 100 µM
same,TGI,[41],> 100 µM
same,TGI,[42],> 100 µM
same,TGI,[43],> 100 µM
same,TGI,[44],> 100 µM
same,TGI,[45],> 100 µM
same,TGI,[56],> 100 µM
same,TGI,[46],> 100 µM
same,TGI,[47],> 100 µM
same,TGI,[48],> 100 µM
same,TGI,[49],> 100 µM
same,TGI,[57],> 100 µM
same,TGI,[50],> 100 µM
same,TGI,[51],> 100 µM
same,TGI,[52],> 100 µM
